According to patent US5352804A, “Isolation and structure of Halistatin 2” (Arizona Board of Regents, a body corporate, acting on …, priority 1993, dated 1994):
Where two headings read alike, the source gives them in different places.

Experiments:
[1] = test system: DMS 114; test: NCI human tumor in vitro primary screen; assay type: cell-based; details: small cell lung cancer
[2] = test system: DMS 273; test: NCI human tumor in vitro primary screen; assay type: cell-based; details: small cell lung cancer
[3] = read-out: Log10 GI50 (converted)
[4] = read-out: Log10 TGI (converted)
[5] = read-out: averaged negative log10 GI50 (converted)

In the case of `C=C1CC2CCC34CC5OC6C(O3)C3OC(CCC3OC6(O)C5O4)CC(=O)OC3C(CC4OC(CCC1O2)CC(C)C4=C)OC1CC2OC4(CC2OC1C3C)CC1OC2(CC(C)C3OC5CC(C(O)CO)OC5CC3O2)CC(C)C1O4` (stereo not drawn) [halistatin 2], the GI50 [1, 3] is reported as 0.339 nM, the IC (TGI) [1, 4] is reported as 1.91 nM and the GI50 [1, 5] is reported as 0.339 nM. The GI50 [2, 3] was 0.129 nM, the IC (TGI) [2, 4] was 5.5 nM and the GI50 [2, 5] was 0.129 nM.
